According to the supplement of paper PMC10307832:

Experiments:
Experiment in all cases: relative viability (nuclei count vs DMSO), 5 days (fraction); higher = more cells survive
[1] = compound: CCC1=CN=CN=C1N2CCN(CC2)CC3=NC4=C(N3)C=C(C=C4)C(F)(F)F + CC(=O)Nc1cccc(-n2c(=O)n(C3CC3)c(=O)c3c(Nc4ccc(I)cc4F)n(C)c(=O)c(C)c32)c1 [Trametinib] (partner 0.02 µM)
Method in brief: (§1)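 Lung cancer cell lines were seeded in 1536-well plates and dosed by pin tool the next day, with either a single drug or a fixed anchor-drug dose combined with five library-drug doses (not always all listed) spaced in √10 steps. Five days later, one step fixed the cells and stained their nuclei (final 0.05% Triton X-100, 1% formaldehyde, 1 ug/ml Hoechst), and nuclei were counted on 4× images. Relative viability is the nuclei count in treated wells divided by the count in vehicle wells, and each value is the median of duplicate plates.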

[2] = compound: CCC1=CN=CN=C1N2CCN(CC2)CC3=NC4=C(N3)C=C(C=C4)C(F)(F)F + COc1cccc2cc(-c3nc([C@H]4CC[C@H](C(=O)O)CC4)n4ncnc(N)c34)[nH]c12 [OSI-027] (partner 0.5 µM)
Method in brief: as §1

Mirin + Tozasertib = compound: N=C1NC(=O)/C(=C/c2ccc(O)cc2)S1 [Mirin] + Cc1cc(Nc2cc(N3CCN(C)CC3)nc(Sc3ccc(NC(=O)C4CC4)cc3)n2)n[nH]1 [Tozasertib] (partner 0.1 µM)
Method in brief: as §1

Mirin + Linsitinib = compound: N=C1NC(=O)/C(=C/c2ccc(O)cc2)S1 [Mirin] + C[C@]1(O)C[C@@H](c2nc(-c3ccc4ccc(-c5ccccc5)nc4c3)c3c(N)nccn32)C1 [Linsitinib] (partner 1 µM)
Method in brief: as §1

Cell Line	relative viability ([1]; first compound 0.04 µM)	relative viability ([1]; first compound 0.1265 µM)	relative viability ([1]; first compound 0.4 µM)	relative viability ([1]; first compound 1.265 µM)	relative viability ([1]; first compound 4 µM)	relative viability ([2]; first compound 0.04 µM)	relative viability ([2]; first compound 0.1265 µM)	relative viability ([2]; first compound 0.4 µM)	relative viability ([2]; first compound 1.265 µM)	relative viability ([2]; first compound 4 µM)	relative viability (Mirin + Tozasertib; first compound 0.25 µM)	relative viability (Mirin + Tozasertib; first compound 0.7906 µM)	relative viability (Mirin + Tozasertib; first compound 2.5 µM)	relative viability (Mirin + Tozasertib; first compound 7.906 µM)	relative viability (Mirin + Tozasertib; first compound 25 µM)	relative viability (Mirin + Linsitinib; first compound 0.25 µM)	relative viability (Mirin + Linsitinib; first compound 2.5 µM)	relative viability (Mirin + Linsitinib; first compound 7.906 µM)	relative viability (Mirin + Linsitinib; first compound 25 µM)	relative viability (Mirin + Linsitinib; first compound 0.7906 µM)
NCI-H1944	0.519	0.406	0.4	0.324	0.352	0.524	0.382	0.385	0.338	0.39	0.245	0.231	0.253	0.192	0.174	1.11	1.25	1.05	0.752	–
NCI-H1975	0.36	0.342	0.319	0.309	0.422	0.766	0.68	0.676	0.579	0.64	0.697	0.84	0.799	0.664	0.585	0.925	1.07	0.989	1.04	0.911
NCI-H1993	0.493	0.658	0.552	0.549	0.644	0.49	0.55	0.614	0.494	0.604	0.611	–	0.605	0.52	0.576	0.739	0.698	0.727	0.756	0.746
NCI-H2009	0.346	0.299	0.281	0.182	0.246	0.591	0.68	0.589	0.502	0.591	0.707	0.785	0.725	0.614	0.556	1.17	1.18	1.15	1.34	1.21
NCI-H2023	0.533	0.53	0.527	0.513	0.453	0.447	0.403	0.342	0.321	0.453	0.343	0.354	0.38	0.27	0.188	0.709	0.653	0.684	0.522	0.674
NCI-H2085	0.456	0.369	0.401	0.43	0.491	0.825	0.608	0.728	0.328	0.724	0.8	0.826	0.678	0.749	0.546	0.943	0.898	0.819	0.882	1.01
NCI-H2087	0.172	0.226	0.244	0.215	0.189	0.584	0.56	0.385	0.451	0.5	0.26	0.248	0.292	0.22	0.19	0.992	0.915	1.23	0.841	1.11
NCI-H2126	0.601	0.546	0.565	0.536	0.513	0.759	0.688	0.624	0.628	0.708	0.85	0.834	0.92	0.832	0.474	0.713	0.756	0.639	0.698	0.707
NCI-H2228	–	0.471	0.397	0.221	0.586	0.535	0.633	0.487	0.635	0.656	0.267	0.197	0.235	0.203	0.176	0.702	0.783	0.831	0.553	0.64
NCI-H2347	0.295	0.333	0.313	0.249	0.293	0.471	0.446	0.374	0.262	0.406	0.58	0.457	0.681	0.587	0.439	0.923	0.98	0.989	0.985	1.09
NCI-H2405	0.676	0.666	0.624	–	0.68	0.723	0.614	0.669	–	0.717	0.71	0.778	0.775	0.67	0.61	0.891	0.963	0.895	0.789	1
NCI-H3122	0.19	0.248	0.201	0.219	0.184	1.02	0.974	0.937	0.938	1.17	0.368	0.337	0.355	0.382	0.305	0.994	1.06	1.15	1.05	1.04
PC-3 [JPC-3]	–	0.632	0.671	0.634	0.682	0.65	0.67	0.705	0.731	0.728	0.905	0.978	0.893	0.879	0.899	1.01	0.988	1.07	1.03	1.03
PC-14	0.828	0.808	0.714	0.71	0.779	0.871	0.814	0.809	0.766	0.82	0.587	0.581	0.589	0.599	0.566	0.929	1.03	0.97	1.08	0.959
RERF-LC-KJ	0.795	0.798	0.821	0.76	0.774	0.517	0.584	0.602	0.517	0.601	0.488	0.524	0.467	0.424	0.385	0.962	0.88	0.896	0.913	0.908
SK-LU-1	0.635	0.483	0.465	0.35	0.476	0.386	0.315	0.337	0.3	0.357	0.332	0.325	0.346	0.213	0.209	1.14	1.17	0.74	0.566	1.15
SK-MES-1	0.569	0.503	0.582	0.516	0.563	0.648	0.592	0.597	0.57	0.622	0.95	1.14	0.87	0.936	0.665	1.06	1.18	1.07	1.26	1.22
SW 1573	0.652	0.58	0.513	0.47	0.497	0.529	0.582	0.53	0.49	0.499	0.181	0.195	0.234	0.188	0.108	0.815	0.79	0.731	0.648	0.728
